# From PubChem BioAssay (NCI)
#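 Assay format: 96-well plates, 48-hour exposure. TGI: concentration producing complete growth inhibition.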
# Tests used:
# Assay in all cases: inhibition of tumour cell growth, NCI panel, 48 h
# HCT-116 colon = tested on: HCT-116 colon
# LXFL 529 NSCLC = tested on: LXFL 529 NSCLC
# SNB-19 CNS = tested on: SNB-19 CNS
# HOP-18 NSCLC = tested on: HOP-18 NSCLC
# NCI-H460 lung = tested on: NCI-H460 lung
# HOP-92 NSCLC = tested on: HOP-92 NSCLC
# A549 NSCLC = tested on: A549 NSCLC
# NCI-H23 lung = tested on: NCI-H23 lung
# SK-MEL-2 melanoma = tested on: SK-MEL-2 melanoma
# LOX IMVI melanoma = tested on: LOX IMVI melanoma
# M19-MEL melanoma = tested on: M19-MEL melanoma
# UACC-62 melanoma = tested on: UACC-62 melanoma
# U251 CNS = tested on: U251 CNS
# SW-620 colon = tested on: SW-620 colon
# MALME-3M melanoma = tested on: MALME-3M melanoma
# RPMI-8226 leukemia = tested on: RPMI-8226 leukemia
# COLO 205 colon = tested on: COLO 205 colon
# NCI-H522 lung = tested on: NCI-H522 lung
# A498 renal = tested on: A498 renal
# EKVX NSCLC = tested on: EKVX NSCLC
# DMS 273 small cell lung = tested on: DMS 273 small cell lung
# KM20L2 colon = tested on: KM20L2 colon
# OVCAR-5 ovarian = tested on: OVCAR-5 ovarian
# SK-OV-3 ovarian = tested on: SK-OV-3 ovarian
# HOP-62 NSCLC = tested on: HOP-62 NSCLC
# IGROV1 ovarian = tested on: IGROV1 ovarian
# M14 melanoma = tested on: M14 melanoma
# 786-0 renal = tested on: 786-0 renal
# HCC-2998 colon = tested on: HCC-2998 colon
# HT29 colon = tested on: HT29 colon
# SN12C renal = tested on: SN12C renal
# OVCAR-3 ovarian = tested on: OVCAR-3 ovarian
# HCT-15 colon = tested on: HCT-15 colon
# KM12 colon = tested on: KM12 colon
# SF-295 CNS = tested on: SF-295 CNS
# SF-268 CNS = tested on: SF-268 CNS
# ACHN renal = tested on: ACHN renal
# RXF 393 renal = tested on: RXF 393 renal
# UO-31 renal = tested on: UO-31 renal
# SNB-75 CNS = tested on: SNB-75 CNS
# UACC-257 melanoma = tested on: UACC-257 melanoma
# CAKI-1 renal = tested on: CAKI-1 renal
# HL-60(TB) leukemia = tested on: HL-60(TB) leukemia
# OVCAR-8 ovarian = tested on: OVCAR-8 ovarian
# SNB-78 CNS = tested on: SNB-78 CNS
# NCI-H226 lung = tested on: NCI-H226 lung
# CCRF-CEM leukemia = tested on: CCRF-CEM leukemia
# SF-539 CNS = tested on: SF-539 CNS
# DLD-1 colon = tested on: DLD-1 colon
# K-562 leukemia = tested on: K-562 leukemia
# TK-10 renal = tested on: TK-10 renal
# OVCAR-4 ovarian = tested on: OVCAR-4 ovarian
# SK-MEL-5 melanoma = tested on: SK-MEL-5 melanoma
# SR leukemia = tested on: SR leukemia
# DMS 114 small cell lung = tested on: DMS 114 small cell lung
# XF 498 CNS = tested on: XF 498 CNS
# SK-MEL-28 melanoma = tested on: SK-MEL-28 melanoma
# MOLT-4 leukemia = tested on: MOLT-4 leukemia
compound,measurement,setting,value
CCCCN(CCCC)C(=NCc1ccccc1)NC#N,TGI,HCT-116 colon,65.4 µM
same,TGI,LXFL 529 NSCLC,31.2 µM
same,TGI,SNB-19 CNS,54.2 µM
same,TGI,HOP-18 NSCLC,> 100 µM
same,TGI,NCI-H460 lung,26.9 µM
same,TGI,HOP-92 NSCLC,33.4 µM
same,TGI,A549 NSCLC,> 100 µM
same,TGI,NCI-H23 lung,58.5 µM
same,TGI,SK-MEL-2 melanoma,39 µM
same,TGI,LOX IMVI melanoma,30.4 µM
same,TGI,M19-MEL melanoma,36.1 µM
same,TGI,UACC-62 melanoma,33.6 µM
same,TGI,U251 CNS,35.7 µM
same,TGI,SW-620 colon,31 µM
same,TGI,MALME-3M melanoma,87.4 µM
same,TGI,RPMI-8226 leukemia,79.3 µM
same,TGI,COLO 205 colon,33 µM
same,TGI,NCI-H522 lung,18.4 µM
same,TGI,A498 renal,42.6 µM
same,TGI,EKVX NSCLC,73.5 µM
same,TGI,DMS 273 small cell lung,75.7 µM
same,TGI,KM20L2 colon,52.2 µM
same,TGI,OVCAR-5 ovarian,81.7 µM
same,TGI,SK-OV-3 ovarian,70.6 µM
same,TGI,HOP-62 NSCLC,55.5 µM
same,TGI,IGROV1 ovarian,59.2 µM
same,TGI,M14 melanoma,52.1 µM
same,TGI,786-0 renal,47 µM
same,TGI,HCC-2998 colon,49.7 µM
same,TGI,HT29 colon,30.1 µM
same,TGI,SN12C renal,44.4 µM
same,TGI,OVCAR-3 ovarian,35.3 µM
same,TGI,HCT-15 colon,28.2 µM
same,TGI,KM12 colon,83.6 µM
same,TGI,SF-295 CNS,35.6 µM
same,TGI,SF-268 CNS,60.3 µM
same,TGI,ACHN renal,65.9 µM
same,TGI,RXF 393 renal,39.8 µM
same,TGI,UO-31 renal,25.3 µM
same,TGI,SNB-75 CNS,95.2 µM
same,TGI,UACC-257 melanoma,67.5 µM
same,TGI,CAKI-1 renal,43.9 µM
same,TGI,HL-60(TB) leukemia,35.7 µM
same,TGI,OVCAR-8 ovarian,> 100 µM
same,TGI,SNB-78 CNS,70.2 µM
same,TGI,NCI-H226 lung,64.8 µM
same,TGI,CCRF-CEM leukemia,37.1 µM
same,TGI,SF-539 CNS,41.2 µM
same,TGI,DLD-1 colon,47 µM
same,TGI,K-562 leukemia,28.3 µM
same,TGI,TK-10 renal,85.2 µM
same,TGI,OVCAR-4 ovarian,> 100 µM
same,TGI,SK-MEL-5 melanoma,38.9 µM
CC(=O)O[C@]12CCCCCCC1C1(O)C(O)CCC[C@H]12 (stereo partly specified),TGI,HCT-116 colon,> 100 µM
same,TGI,SR leukemia,> 100 µM
same,TGI,LXFL 529 NSCLC,> 100 µM
same,TGI,SNB-19 CNS,> 100 µM
same,TGI,HOP-18 NSCLC,> 100 µM
same,TGI,NCI-H460 lung,> 100 µM
same,TGI,A549 NSCLC,> 100 µM
same,TGI,NCI-H23 lung,> 100 µM
same,TGI,SK-MEL-2 melanoma,> 100 µM
same,TGI,LOX IMVI melanoma,> 100 µM
same,TGI,M19-MEL melanoma,> 100 µM
same,TGI,UACC-62 melanoma,> 100 µM
same,TGI,U251 CNS,> 100 µM
same,TGI,SW-620 colon,> 100 µM
same,TGI,MALME-3M melanoma,> 100 µM
same,TGI,RPMI-8226 leukemia,> 100 µM
same,TGI,COLO 205 colon,> 100 µM
same,TGI,NCI-H522 lung,> 100 µM
same,TGI,EKVX NSCLC,> 100 µM
same,TGI,DMS 273 small cell lung,> 100 µM
same,TGI,KM20L2 colon,> 100 µM
same,TGI,SK-OV-3 ovarian,> 100 µM
same,TGI,HOP-62 NSCLC,> 100 µM
same,TGI,M14 melanoma,> 100 µM
same,TGI,786-0 renal,> 100 µM
same,TGI,HT29 colon,> 100 µM
same,TGI,SN12C renal,> 100 µM
same,TGI,HCT-15 colon,> 100 µM
same,TGI,KM12 colon,> 100 µM
same,TGI,SF-295 CNS,> 100 µM
same,TGI,SF-268 CNS,> 100 µM
same,TGI,ACHN renal,> 100 µM
same,TGI,RXF 393 renal,> 100 µM
same,TGI,DMS 114 small cell lung,> 100 µM
same,TGI,XF 498 CNS,> 100 µM
same,TGI,UO-31 renal,> 100 µM
same,TGI,SNB-75 CNS,> 100 µM
same,TGI,UACC-257 melanoma,> 100 µM
same,TGI,SK-MEL-28 melanoma,> 100 µM
same,TGI,OVCAR-8 ovarian,> 100 µM
same,TGI,SNB-78 CNS,> 100 µM
same,TGI,NCI-H226 lung,> 100 µM
same,TGI,CCRF-CEM leukemia,> 100 µM
same,TGI,K-562 leukemia,> 100 µM
same,TGI,TK-10 renal,> 100 µM
same,TGI,OVCAR-4 ovarian,> 100 µM
same,TGI,MOLT-4 leukemia,> 100 µM
same,TGI,SK-MEL-5 melanoma,> 100 µM
